Results reported in patent US9216182B2, “Carbamate/urea derivatives containing piperidin and piperazin rings as H3 receptor inhibitors” (Novartis AG, priority 2011, dated 2015).

**Q.** With `CC(C)N1CCN(C(=O)OC2CCN(c3ccc(C(N)=O)cn3)CC2)CC1` [Example 1.1, 1-(5-carbamoylpyridin-2-yl)piperidin-4-yl 4-isopropylpiperazine-1-carboxylate] as the compound, how does the melting point read?
**A.** Its melting point is 200.1 to 203.6 °C.
